Among the test systems are OVCAR-5 ovarian; HCT-15 colon; HCC-2998 colon; K-562 leukemia; 786-0 renal; OVCAR-3 ovarian; SF-268 CNS; MALME-3M melanoma; HOP-62 NSCLC; HCT-116 colon; SK-MEL-28 melanoma; UACC-62 melanoma; A549 NSCLC; HS 578T breast; SK-OV-3 ovarian; OVCAR-8 ovarian; RXF 393 renal; NCI-H23 lung; SF-295 CNS.
Common to all, as to experiment: DTP human tumour cell line panel, 48 h

Structures are written as SMILES.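 Cultured in 96-well plates, cells were exposed to test compound for 48 hours across five concentrations. TGI denotes the concentration required for complete inhibition of growth.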

One may read the TGI as the concentration at which net growth stops. With `Cc1cc(S(=O)(=O)NC2=NCCCN2)c(S)cc1Cl`, the TGI is over 100 µM with OVCAR-5 ovarian; over 100 µM with HCT-15 colon; over 100 µM in the test on HCC-2998 colon; 75.9 µM with K-562 leukemia; 56.4 µM with 786-0 renal; over 100 µM in the test with OVCAR-3 ovarian. Also, the TGI in the test on SF-268 CNS was over 100 µM; with MALME-3M melanoma, 72.4 µM; with HOP-62 NSCLC, over 100 µM; in the test on HCT-116 colon, 94.1 µM; in the test on SK-MEL-28 melanoma it was over 100 µM; in the test on UACC-62 melanoma, 90.3 µM. Moreover, the total growth inhibition concentration (TGI) in the test on A549 NSCLC is 53.9 µM; in the test with HS 578T breast, 86.7 µM; in the test on SK-OV-3 ovarian, over 100 µM; with OVCAR-8 ovarian, 67.6 µM; in the test on RXF 393 renal, over 100 µM.
In the case of `COc1ccc2nc3n(c2c1)C(c1c(F)cccc1F)SC3` (stereo not drawn), the TGI in the test with OVCAR-5 ovarian, with NCI-H23 lung, in the test on HCT-15 colon, in the test with HCC-2998 colon, with SF-295 CNS and in the test on K-562 leukemia was over 100 µM in each case. Further, the TGI was over 100 µM with 786-0 renal; over 100 µM in the test with OVCAR-3 ovarian; over 100 µM in the test with SF-268 CNS; over 100 µM in the test with HOP-62 NSCLC; 75.2 µM in the test with HCT-116 colon; over 100 µM in the test with SK-MEL-28 melanoma. The total growth inhibition concentration (TGI) was over 100 µM with UACC-62 melanoma; over 100 µM with A549 NSCLC; 87.7 µM in the test with HS 578T breast; over 100 µM with SK-OV-3 ovarian; over 100 µM with OVCAR-8 ovarian; over 100 µM with RXF 393 renal.
On to `CCOC(=O)[C@@H]1ON2O[C@@H](OC3CCCCC3c3ccccc3)C[C@H]3OC(=O)[C@@H]1C32` (stereo partly drawn), for which the total growth inhibition concentration (TGI) in the test with OVCAR-5 ovarian, in the test on NCI-H23 lung, with HCT-15 colon, with HCC-2998 colon, in the test on SF-295 CNS and in the test on K-562 leukemia was over 100 µM throughout. The TGI in the test on 786-0 renal, with OVCAR-3 ovarian, in the test on SF-268 CNS, with HOP-62 NSCLC, in the test on HCT-116 colon and in the test with UACC-62 melanoma was over 100 µM throughout. Moreover, the total growth inhibition concentration (TGI) in the test with A549 NSCLC, with HS 578T breast, in the test on SK-OV-3 ovarian, in the test on OVCAR-8 ovarian and with RXF 393 renal was over 100 µM in each case.
In the case of `CSc1ncc2c(C#N)c3[nH]c4ccccc4n3c(=O)c2n1`, the TGI in the test with OVCAR-5 ovarian is over 100 µM; with NCI-H23 lung, over 100 µM; in the test with HCT-15 colon, 76.4 µM; in the test on HCC-2998 colon, 42.7 µM; in the test on SF-295 CNS it was over 100 µM; in the test on K-562 leukemia, 46 µM. Further, the total growth inhibition concentration (TGI) in the test with 786-0 renal was over 100 µM; in the test on OVCAR-3 ovarian, 45.2 µM; in the test on SF-268 CNS, over 100 µM; in the test with HOP-62 NSCLC it was over 100 µM; in the test with HCT-116 colon, 57.5 µM; in the test with UACC-62 melanoma, 21.2 µM. The concentration for total growth inhibition (TGI) in the test with HS 578T breast is over 100 µM; in the test on SK-OV-3 ovarian, over 100 µM; with OVCAR-8 ovarian, 98.8 µM; in the test on RXF 393 renal, 95.5 µM.
For the compound `C[C@H](c1ccccc1)n1c(N)c(-c2nc3ccccc3s2)c2ccc([N+](=O)[O-])cc2c1=O`, the TGI in the test on OVCAR-5 ovarian is over 100 µM; in the test with NCI-H23 lung, 6.66 µM; in the test with HCT-15 colon, over 75.4 µM; in the test on HCC-2998 colon it was over 85.1 µM; in the test on SF-295 CNS, 50.8 µM; in the test on K-562 leukemia, 4.25 µM. The concentration for total growth inhibition (TGI) in the test on 786-0 renal was over 100 µM; with OVCAR-3 ovarian it was over 100 µM; in the test on SF-268 CNS, over 100 µM; with MALME-3M melanoma, 56.8 µM; with HOP-62 NSCLC it was 56.9 µM; in the test on HCT-116 colon it was 10.9 µM. The TGI in the test with SK-MEL-28 melanoma was over 100 µM; in the test with UACC-62 melanoma it was over 100 µM; in the test on A549 NSCLC it was over 100 µM; with HS 578T breast it was over 43.7 µM; with SK-OV-3 ovarian it was over 100 µM; in the test on OVCAR-8 ovarian, over 100 µM.
On to `COc1ccc(/C=C2\Sc3nnc(-c4ccccc4)n3N=C2c2cc(F)c(Cl)cc2Cl)cc1OC`, for which the TGI with OVCAR-5 ovarian is over 100 µM; with NCI-H23 lung it was over 100 µM; in the test on HCT-15 colon, over 100 µM; in the test with HCC-2998 colon, 47.2 µM; with SF-295 CNS it was over 100 µM; in the test with K-562 leukemia, over 100 µM. Besides, the TGI in the test on 786-0 renal, with OVCAR-3 ovarian, in the test on SF-268 CNS, with HOP-62 NSCLC, in the test on HCT-116 colon and in the test on SK-MEL-28 melanoma was over 100 µM in each case. The TGI with HS 578T breast was over 100 µM; in the test with SK-OV-3 ovarian it was over 100 µM; with OVCAR-8 ovarian, over 100 µM; with RXF 393 renal, 54.4 µM.
Regarding `CCCCCCc1cc2cc(-c3cn4c(n3)sc3ccccc34)c(=O)oc2cc1O`, the concentration for total growth inhibition (TGI) with OVCAR-5 ovarian, in the test with NCI-H23 lung, in the test with HCT-15 colon, in the test on HCC-2998 colon, with SF-295 CNS and with K-562 leukemia was over 100 µM throughout. Besides, the TGI in the test with 786-0 renal, in the test on OVCAR-3 ovarian, in the test with SF-268 CNS, in the test on HOP-62 NSCLC, with HCT-116 colon and in the test on SK-MEL-28 melanoma was over 100 µM each time. Further, the TGI with UACC-62 melanoma is 5.58 µM; with A549 NSCLC, over 100 µM; in the test with HS 578T breast, over 72.1 µM; with SK-OV-3 ovarian, over 100 µM; with OVCAR-8 ovarian it was over 100 µM; in the test with RXF 393 renal, over 100 µM.
Consider `CC1(C)OC[C@H](COCOP2(=O)Oc3ccc4ccccc4c3-c3c(ccc4ccccc34)O2)O1`, for which the total growth inhibition concentration (TGI) with OVCAR-5 ovarian was 33.4 µM; in the test on NCI-H23 lung, 29.6 µM; in the test with HCT-15 colon, 28.6 µM; in the test with HCC-2998 colon it was 31.3 µM; with SF-295 CNS it was 32.2 µM; in the test on K-562 leukemia, 80.6 µM. Moreover, the total growth inhibition concentration (TGI) in the test with 786-0 renal came to 81.6 µM; in the test on OVCAR-3 ovarian it was 29.6 µM; in the test on SF-268 CNS, 39.1 µM; with MALME-3M melanoma it was 37.2 µM; with HOP-62 NSCLC, 40 µM; in the test with HCT-116 colon, 28.3 µM. In addition, the TGI is 27 µM in the test with SK-MEL-28 melanoma; 46.9 µM in the test on UACC-62 melanoma; 63.3 µM in the test on A549 NSCLC; over 100 µM in the test on HS 578T breast; 73.3 µM in the test with SK-OV-3 ovarian; 63.3 µM with OVCAR-8 ovarian.

Source of the values: PubChem BioAssay (NCI).
